Laboratory results published in US11028090B2 (Dong Wha Pharm. Co., Ltd., priority 2017, dated 2021).
Where two headings read alike, the source gives them in different places.

Legend:
[1] = system: acute myelogenous leukemia cells (MV-4-11 cells); assay: Cytotoxicity to acute myelogenous leukemia cells (MV-4-11 cells), CCK-8
[2] = biological target: BRD4 (BD1+BD2) bromodomain (Homo sapiens (Human), UniProt O60885); assay: BRD4 binding inhibition (AlphaScreen, GST-BRD4 vs tetraacetylated histone H4 peptide)
How it was run: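 AlphaScreen read after 30 min dark incubation at room temperature with glutathione acceptor/streptavidin donor beads (10 μg/ml each). The beads were added to compound plus 100 nM biotin-H4 (K5,8,12,16-acetyl) peptide and 100 nM GST-BRD4 BD1+BD2 in pH 7.4 HEPES/Tween/BSA/DTT buffer.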

[3] = Homo sapiens, MV4-11, 72 h, read-out: MV-4-11 Cytotoxicity IC50
[4] = GST-BRD4 (BD1+BD2) / biotinylated acetyl-histone H4 (Lys5,8,12,16) peptide, read-out: IC50, BRD4 binding inhibition
[5] = GST-BRD4 (BD1+BD2) vs biotinylated acetyl-histone H4 peptide, AlphaScreen, read-out: BRD4 IC50
[6] = Homo sapiens, MV4-11, 72 h, read-out: IC50, cytotoxicity against acute myelogenous leukemia cells

IC50 [2, 4] [nM]	IC50 [2, 5] [nM]	SMILES	IC50 [1, 3] [nM]	IC50 [1, 6] [nM]	IC50 ([1]; read-out: MV-4-11 Cytotoxicity IC50, MV-4-11 cells, 72 hours, CCK-8) [nM]
≤ 10		Cc1nnc2c(NCCCCNC(=O)OC(C)(C)C)nc3cc(-c4nc5ccccc5n4C)ccc3n12 [Example 220, {4-[1-methyl-7-(1-methyl-1H-benzoimidazole-2-yl)-[1,2,4]triazolo[4,3-a]quinoxaline-4-ylamino]-butyl}-carbamic acid-tert-butylester]	350		
≤ 50	16	CCc1nnc2c(NCCCCNC(=O)OCC(C)C)nc3cc(OC)ccc3n12 [Example 624, [4-(7-methoxy-1-ethyl-[l,2,4]triazolo[4,3-a]quinoxaline-4-ylamino)-butyl]-carbamic acid isobutylester]	410		
≤ 50	37	Cc1nnc2c(NCCCCNC(=O)Cc3cccs3)nc3cc(OCCN4CCOCC4)ccc3n12 [Example 438, N-{4-[1-methyl-7-(2-morpholine-4-yl-ethoxy)-[1,2,4]triazolo[4,3-a]quinoxaline-4-ylamino]-butyl}-2-thiophene-2-yl-acetamide]	33	≤ 200	
	52	COc1c(C)ccc2c1nc(NCCCCNC(=O)c1ccccc1Cl)c1nnc(C)n12 [Example 140, 2-chloro-N-[4-(6-methoxy-1,7-dimethyl-[1,2,4]triazolo[4,3-a]quinoxaline-4-ylamino)-butyl]-benzamide]	680		
≤ 10	10	Cc1nnc2c(NCCCCNC(=O)CC(C)C)nc3cc(OC4CCOCC4)ccc3n12 [Example 344, 3-methyl-N-{4-[1-methyl-7-(tetrahydro-pyran-4-yloxy)-[1,2,4]triazolo[4,3-a]quinoxaline-4-ylamino]-butyl}-butyramide]	121	≤ 200	
≤ 50	13	COc1cc2nc(NCCCCNC(=O)CC(C)C)c3nnc(C)n3c2cc1NS(=O)(=O)CC(C)C [Example 567]	200	≤ 200	
≤ 10	6	COCCOc1ccc2c(c1)nc(NCCCCNC(=O)[C@H](O)C(C)C)c1nnc(C)n12 [Example 388, 2-(R)-hydroxy-N-{4-[7-(2-methoxy-ethoxy)-1-methyl-[1,2,4]triazolo[4,3-a]quinoxaline-4-ylamino]-butyl}-3-methyl-butyramide]	55	≤ 200	
≤ 50	17	COc1ccc2c(c1)nc(NCCCCNC(=O)OC1CCCC1)c1nnc(C)n12 [Example 332, [4-(7-methoxy-1-methyl-[1,2,4]triazolo[4,3-a]quinoxaline-4-ylamino)-butyl]-carbamic acid cyclopentylester]	10	≤ 200	
≤ 50	16	COCCOc1ccc2c(c1)nc(NCCCCNC(=O)OC(C)C)c1nnc(C)n12 [Example 366, {4-[7-(2-methoxy-ethoxy)-1-methyl-[1,2,4]triazolo[4,3-a]quinoxaline-4-ylamino]-butyl}-carbamic acid isopropylester]	110	≤ 200	
≤ 50	18	COc1cc2nc(NCCCCC(=O)NCc3ccco3)c3nnc(C)n3c2cc1OC [Example 650, 5-(7,8-dimethoxy-1-methyl-[1,2,4]triazolo[4,3-a]quinoxaline-4-ylamino)-pentanoic acid-(furan-2-ylmethyl)-amide]	220		
≤ 50	31	Cc1ccc(NC(=O)c2ccc3c(c2)nc(NCCCCNC(=O)CC(C)C)c2nnc(C)n23)c(N)c1 [Example 216, 1-methyl-4-[4-(3-methyl-butyrylamino)-butylamino]-[1,2,4]triazolo[4,3-a]quinoxaline-7-carboxylic acid-(2-amino-4-methyl-phenyl)-amide]	240		
≤ 50	17	Cc1nnc2c(NCCCCNC(=O)OCC(C)C)nc3cc4c(cc3n12)OCCO4 [Example 189, [4-(1-methyl-8,9-dihydro-7,10-dioxa-2,3,5,11b-tetraaza-cyclopenta[a]anthracene-4-ylamino)-butyl]-carbamic acid isobutylester]	110	≤ 200	
		Cc1nnc2c(NCCCCNC(=O)CC(C)C)nc3cc(NC(=O)NC(C)C)ccc3n12 [Example 255, N-{4-[7-(3-isopropyl-ureido)-1-methyl-[1,2,4]triazolo[4,3-a]quinoxaline-4-ylamino]-butyl}-3-methyl-butyramide]	93	≤ 200	
		Cc1nnc2c(NCCCCNC(=O)C(C)(C)C)nc3cc(OC(F)(F)F)ccc3n12 [Example 271, 2,2-dimethyl-N-[4-(1-methyl-7-trifluoromethoxy-[1,2,4]triazolo[4,3-a]quinoxaline-4-ylamino)-butyl]-propionamide]	880		
		COCCOc1cc2c(cc1OC)nc(NCCCCNC(=O)OC(C)(C)C)c1nnc(C)n12 [Example 483, {4-[7-methoxy-8-(2-methoxy-ethoxy)-1-methyl-[1,2,4]triazolo[4,3-a]quinoxaline-4-ylamino]-butyl}-carbamic acid-tert-butylester]	460		
		Cc1nnc2c(NCCCCNC(=O)C(C)(C)C)nc3ccc(OC(F)(F)F)cc3n12 [Example 265, 2,2-dimethyl-N-[4-(1-methyl-8-trifluoromethoxy-[1,2,4]triazolo[4,3-a]quinoxaline-4-ylamino)-butyl]-propionamide]	680		
		COc1cc2c(cc1OCCN1CCOCC1)nc(NCCCCNC(=O)CC(C)C)c1nnc(C)n12 [Example 577, N-{4-[8-methoxy-1-methyl-7-(2-morpholine-4-yl-ethoxy)-[1,2,4]triazolo[4,3-a]quinoxaline-4-ylamino]-butyl}-3-methyl butyramide]	87	≤ 200	
		COc1cc2nc(NCCCCNC(=O)OC(C)(C)C)c3nnc(C)n3c2cc1F [Example 572, [4-(8-fluoro-7-methoxy 1-methyl-[1,2,4]triazolo[4,3-a]quinoxaline-4-ylamino)-butyl]-carbamic acid-tert-butylester]	238		
		CNc1ccc2c(c1)nc(NCCCCNC(=O)CC(C)C)c1nnc(C)n12 [Example 252, 3-methyl-N-[4-(1-methyl-7-methylamino-[1,2,4]triazolo[4,3-a]quinoxaline-4-ylamino)-butyl]-butyramide]	254		
		Cc1nnc2c(NCCCCNC(=O)CC(C)C)nc3cc(OC(=O)N4CCOCC4)ccc3n12 [Example 351]	290		
		Cc1nnc2c(NCCCCNC(=O)OC(C)(C)C)nc3cc(N4CCc5sccc5C4)ccc3n12 [Example 526, {4-[7-(6,7-dihydro-4H-thiano[3,2-c]pyridine-5-yl)-1-methyl-[1,2,4]triazolo[4,3-a]quinoxaline-4-ylamino]-butyl}-carbamic acid-tert-butylester]	802		
		Cc1nnc2c(NCCCCNC(=O)CC(C)C)nc3cc(NC(=S)NC(C)C)ccc3n12 [Example 256, N-{4-[7-(3-isopropyl-thioureido)-1-methyl-[1,2,4]triazolo[4,3-a]quinoxaline-4-ylamino]-butyl}-3-methyl-butyramide]	84	≤ 200	
		Cc1nnc2c(NCCCCNC(=O)CC(C)C)nc3cc(NS(=O)(=O)C(C)C)ccc3n12 [Example 259, 3-methyl-N-{4-[1-methyl-7-(propane-2-sulfonylamino)-[1,2,4]triazolo[4,3-a]quinoxaline-4-ylamino]-butyl}-butyramide]	339		
		COc1cc2nc(NCCCCNC(=O)CC(C)C)c3nnc(C)n3c2cc1N(S(C)(=O)=O)S(C)(=O)=O [Example 566, N-[4-(8-dimethanesulfonyl-amino-7-methoxy-1-methyl-[1,2,4]triazolo[4,3-a]quinoxaline-4-ylamino)-butyl]-3-methyl-butyramide]			550
		CSc1ccc2c(c1)nc(NCCCCNC(=O)CC(C)C)c1nnc(C)n12 [Example 356, 3-methyl-N-[4-(1-methyl-7-methylsulfanyl-[1,2,4]triazolo[4,3-a]quinoxaline-4-ylamino)-butyl]-butyramide]	143	≤ 200	
		COc1ccc2c(c1)nc(NCCCCNC(=O)C1CC1)c1nnc(C)n12 [Example 282, cyclopropane; carboxylic acid-[4-(7-methoxy-1-methyl-[1,2,4]triazolo[4,3-a]quinoxaline-4-ylamino)-butyl]-amide]	534		
		Cc1nnc2c(NCCCCNC(=O)[C@@H](NC(=O)CC(C)C)C(C)C)nc3cc(N4C[C@@H](C)O[C@@H](C)C4)ccc3n12 [Example 518, (S)-N-{4-[7-(2,6-dimethyl-morpholine-4-yl)-1-methyl-[1,2,4]triazolo[4,3-a]quinoxaline-4-ylamino]-butyl}-3-methyl-2-(3-methyl-butyrylamino)-butyramide]	480		
		COCCOc1cc2c(cc1OC)nc(NCCCCN)c1nnc(C)n12 [Example 484, N^1-[7-methoxy-8-(2-methoxy-ethoxy)-1-methyl-[1,2,4]triazolo[4,3-a]quinoxaline-4-yl]-butane-1,4-diamine ditrifluoroacetic acid]	460		
		Cc1nnc2c(NCCCCNC(=O)OC(C)C)nc3cc(OC(C)C)ccc3n12 [Example 452, [4-(7-isopropoxy-1-methyl-[1,2,4]triazolo[4,3-a]quinoxaline-4-ylamino)-butyl]-carbamic acid isopropylester]	320		
		Cc1noc(C)c1-c1ccc2c(c1)nc(NCCCCN)c1nnc(C)n12 [Example 584, N^1-[7-(3,5-dimethyl-isoxazol-4-yl)-1-methyl-[1,2,4]triazolo[4,3-a]quinoxaline-4-yl]-butane-1,4-diamine ditrifluoroacetic acid]	130	≤ 200	
